This is an account of results in US20150031760A1, “PHARMACEUTICAL COMPOSITION FOR PREVENTING OR TREATING NERVOUS SYSTEM DISORDERS COMPRISING SULFURETIN OR PHARMACEUTICALLY ACCEPTABLE SALT THEREOF” (Research and Business Foundation SUNGKYUNKWAN UNIVERSITY, priority 2010, published 2015).

SMILES strings stand for the structures.

Holding throughout (format): cell-based, human
Experiment [1] has as its system SH-SY5Y cells. As to the kind of experiment: Inhibition of ROS production (DCFH-DA fluorescence). The following applies: hydrogen peroxide-induced, 2 hours pretreatment. The protocol: (§1) The incubator was maintained at a temperature of 37° C., and a mixed gas of 95% air and 5% CO2 was continuously supplied thereto to provide suitable conditions for cell culture. The cells were cultured in a 6-well plate or a 96-well plate at each of densities of 1×10^6 and 2×10^4 cells/well 24 hours before the experiment. […] Sulfuretin was used in ethanol and used at a final concentration of 0.1% or less.
In order to measure ROS elimination activity, cells were labeled with DCFH-DA fluorescence, and quantitative analysis was performed using a fluorescence meter.
Specifically, the 6-well plate in which the cells have been cultured was pretreated with sulfuretin for 2 hours, and then reacted with hydrogen peroxide for 30 minutes to induce ROS. Then, 10 μl of 10 mM DCFH-DA was added to the plate and allowed to react with the cells for 30 minutes. Herein, DCFH-DA in the incubator was covered with a foil such that it would not be exposed to light. The cells that reacted with the DCFH-DA fluorescent substance were detached using cold PBS and centrifuged at 400 g for 3 minutes. The centrifugation process was repeated twice to wash the fluorescent substance. The washed cells were briefly stirred with 1 ml of PBS, and 100 μl was dispensed into each of a fresh 96-well plate. Then, fluorescence was measured at an excitation wavelength of 488 nm and an emission wavelength of 515 nm using a fluorescence meter (Perkinelmer, USA).
The measured value was substituted into the following equation to calculate ROS production:
ROS production (%)=[(O.D. of control−O.D. of test group)/O.D. of control]×100

Experiment [2] has as its system SH-SY5Y cells. Description: Inhibition of mitochondrial membrane potential (MMP) damage (rhodamine-123). The following applies: hydrogen peroxide-induced damage, 30 minutes pretreatment. The protocol:
as §1
In order to measure the inhibition of MMP damage, cells were labeled with rhodamine-123 fluorescence, and quantitative analysis was performed using a fluorescence meter. Specifically, the 6-well plate in which the cells have been cultured was pretreated with sulfuretin for 30 minutes and then reacted with hydrogen peroxide for 30 minutes to induce MMP damage. Then, 10 μl of 10 μM rhodamine-123 was added to each well of the plate and allowed to react for 30 minutes. Herein, rhodamine-123 in the incubator was covered with a silver foil such that it would not be exposed to light. The cells that reacted with the rhodamine-123 fluorescent substance were detached with cold PBS and centrifuged at 400 g for 3 minutes. The centrifugation process was repeated twice to wash the fluorescent substance. The washed cells were stirred briefly with 0.5 ml of PBS, and 100 μl was dispensed into each well of a fresh 96-well plate. The fluorescence of the cells was measured at an excitation wavelength of 480 nm and an emission wavelength of 530 nm using a fluorescence meter (Perkinelmer, USA).
The measured fluorescence was substituted into the following equation to calculate ΔΨm:
ΔΨm(%)=[(O.D. of control−O.D. of test group)/O.D. of control]×100

The test system of a further experiment is BACE1. Description: Western blot, BACE1 level. The conditions noted are these: Swedish APP mutant SH-SY5Y cells; sulfuretin 2.5, 5, 10 and 20 μM for 24 h; dose-dependent (p<0.001). The protocol:
For the experiments shown in FIGS. 11 to 13, SH-SY5Y and stable swedish APP mutant SH-SY5Y cells were grown in DMEM supplemented with 10% heat-inactivated FBS and 0.1% penicillin/streptomycin at 37° C. in a humidified atmosphere of 5% CO2 and 95% air. Cells were fed every three days and sub-cultured once they reached 80-90% confluency in […] cell culture dishes. Amyloid beta25-35 was prepared as a 20 mM stock immediately before use and diluted in PBS to the indicated final concentration. Prior to use, amyloid beta25-35 was dissolved in sterilized distilled water and was aggregated at 37° C. for five days. The test compounds were dissolved in DMSO and the stock solutions were added directly to the culture media to a final concentration of 0.1% (v/v) DMSO.
SH-SY5Y and stable swedish APP mutant SH-SY5Y cells (1×10^6 cells/well in 6-well plates) were incubated at 37° C. with or without 20 μM amyloid beta 25-35 for 6 or 24 h, with or without sulfuretin pretreatment, and then washed and harvested with ice-cold PBS and centrifuged at 400×g for 3 minutes. […] The protein concentration was determined using a protein assay kit (Thermo Scientific). […] Protein bands were quantified by densitometric analysis using Image Gauge 4.0 software (Fujifilm, Stamford, Conn., USA). […]

On to `O=C1/C(=C/c2ccc(O)c(O)c2)Oc2cc(O)ccc21` [sulfuretin], for which the ROS production is on record as at most 147% with SH-SY5Y cells [1] (sulfuretin 0.1 μg/ml), at most 126% in the experiment on SH-SY5Y cells [1] (sulfuretin 0.5 μg/ml), at most 123% in the experiment on SH-SY5Y cells [1] (sulfuretin 1 μg/ml) and at most 103% in the experiment on SH-SY5Y cells [1] (sulfuretin 5 μg/ml). Also, the “MMP (ΔΨm)” value with SH-SY5Y cells [2] (sulfuretin 0.1 μg/ml) is at least 56%; in the experiment on SH-SY5Y cells [2] (sulfuretin 0.5 μg/ml) it was at least 62%; in the experiment on SH-SY5Y cells [2] (sulfuretin 1 μg/ml), at least 91%; in the experiment on SH-SY5Y cells [2] (sulfuretin 5 μg/ml), at least 98%. Further, the BACE1 level result with BACE1 is reported as “significantly inhibited”.
